Measured values as given in article PMC7217030 (Journal of medicinal chemistry, 2018).

Assays:
[1] = target: T1, full length and native ERα (Homo sapiens, UniProt P03372); test: Cell-based transcriptional assay, ERα antagonist mode; conditions: concentrations up to 10 μM
T1 sequence (P03372 1-595): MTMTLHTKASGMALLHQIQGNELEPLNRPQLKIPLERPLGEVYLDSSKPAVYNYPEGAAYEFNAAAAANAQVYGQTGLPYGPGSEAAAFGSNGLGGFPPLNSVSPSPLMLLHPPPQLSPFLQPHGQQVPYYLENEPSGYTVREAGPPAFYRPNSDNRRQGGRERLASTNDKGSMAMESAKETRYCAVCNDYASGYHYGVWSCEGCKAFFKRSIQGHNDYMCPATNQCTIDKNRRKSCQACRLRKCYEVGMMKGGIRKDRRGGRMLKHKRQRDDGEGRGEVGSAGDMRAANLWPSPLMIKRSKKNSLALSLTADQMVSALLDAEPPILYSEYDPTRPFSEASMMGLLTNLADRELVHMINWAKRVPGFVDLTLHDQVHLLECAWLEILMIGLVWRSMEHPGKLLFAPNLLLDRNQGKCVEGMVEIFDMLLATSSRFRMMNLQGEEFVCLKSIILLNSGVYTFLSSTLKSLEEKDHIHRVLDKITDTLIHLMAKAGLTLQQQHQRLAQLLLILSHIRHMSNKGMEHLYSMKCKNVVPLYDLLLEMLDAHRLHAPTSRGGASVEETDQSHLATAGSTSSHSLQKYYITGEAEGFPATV

[2] = target: T2, androgen receptor (AR) LBD fused to GAL4 DBD (Homo sapiens, UniProt P10275); test: GeneBLAzer nuclear hormone receptor specificity assay, agonist mode, AR; format: cell-based; conditions: 0.25 to 25 μM
T2 sequence (P10275 669-900 limits assumed): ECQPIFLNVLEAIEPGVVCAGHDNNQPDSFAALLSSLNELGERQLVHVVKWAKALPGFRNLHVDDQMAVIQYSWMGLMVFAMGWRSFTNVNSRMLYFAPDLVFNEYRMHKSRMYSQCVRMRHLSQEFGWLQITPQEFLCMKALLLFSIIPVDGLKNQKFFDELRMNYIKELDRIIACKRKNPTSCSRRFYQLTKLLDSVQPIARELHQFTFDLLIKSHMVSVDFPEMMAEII

[3] = target: T3, glucocorticoid receptor (GR) LBD fused to GAL4 DBD (Homo sapiens, UniProt P04150); test: GeneBLAzer nuclear hormone receptor specificity assay, agonist mode, GR; format: cell-based; conditions: 0.25 to 25 μM
T3 sequence (P04150 524-758 limits assumed): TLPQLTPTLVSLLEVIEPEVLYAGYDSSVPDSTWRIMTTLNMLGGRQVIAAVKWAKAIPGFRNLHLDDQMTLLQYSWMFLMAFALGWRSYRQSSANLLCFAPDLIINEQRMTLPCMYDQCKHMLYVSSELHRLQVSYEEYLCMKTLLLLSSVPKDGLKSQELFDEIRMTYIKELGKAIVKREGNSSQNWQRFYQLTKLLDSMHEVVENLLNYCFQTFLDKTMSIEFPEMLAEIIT

[4] = target: T4, mineralocorticoid receptor (MR) LBD fused to GAL4 DBD (Homo sapiens, UniProt P08235); test: GeneBLAzer nuclear hormone receptor specificity assay, agonist mode, MR; format: cell-based; conditions: 0.25 to 25 μM
T4 sequence (P08235 726-964 limits assumed): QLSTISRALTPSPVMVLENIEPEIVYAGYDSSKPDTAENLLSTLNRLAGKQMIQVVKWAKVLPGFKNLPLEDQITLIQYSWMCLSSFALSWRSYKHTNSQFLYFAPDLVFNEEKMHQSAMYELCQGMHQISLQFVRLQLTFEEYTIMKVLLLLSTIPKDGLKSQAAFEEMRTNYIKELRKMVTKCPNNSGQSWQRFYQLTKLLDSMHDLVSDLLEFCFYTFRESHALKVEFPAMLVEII

[5] = target: T5, peroxisome proliferator-activated receptor (PPARδ) LBD fused to GAL4 DBD (Homo sapiens, UniProt Q03181); test: GeneBLAzer nuclear hormone receptor specificity assay, agonist mode, PPARδ; format: cell-based; conditions: 0.25 to 25 μM
T5 sequence (Q03181 211-439 limits assumed): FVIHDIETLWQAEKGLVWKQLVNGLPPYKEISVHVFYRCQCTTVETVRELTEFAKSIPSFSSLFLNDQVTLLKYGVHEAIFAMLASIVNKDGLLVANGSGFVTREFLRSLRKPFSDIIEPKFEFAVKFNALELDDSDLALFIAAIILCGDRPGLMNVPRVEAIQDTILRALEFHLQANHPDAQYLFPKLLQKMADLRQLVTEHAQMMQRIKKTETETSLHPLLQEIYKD

[6] = target: T6, progesterone receptor (PR) LBD fused to GAL4 DBD (Homo sapiens, UniProt P06401); test: GeneBLAzer nuclear hormone receptor specificity assay, agonist mode, PR; format: cell-based; conditions: 0.25 to 25 μM
T6 sequence (P06401 679-913 limits assumed): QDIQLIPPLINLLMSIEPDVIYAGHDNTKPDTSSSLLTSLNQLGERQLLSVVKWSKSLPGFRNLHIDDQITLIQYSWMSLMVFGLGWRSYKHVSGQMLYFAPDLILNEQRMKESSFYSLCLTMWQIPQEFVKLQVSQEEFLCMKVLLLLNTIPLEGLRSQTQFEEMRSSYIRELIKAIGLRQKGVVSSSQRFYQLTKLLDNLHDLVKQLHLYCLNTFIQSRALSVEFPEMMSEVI

[7] = target: T7, thyroid hormone receptor (TRβ) LBD fused to GAL4 DBD (Homo sapiens, UniProt P10828); test: GeneBLAzer nuclear hormone receptor specificity assay, agonist mode, TRβ; format: cell-based; conditions: 0.25 to 25 μM
T7 sequence (P10828 217-461 limits assumed): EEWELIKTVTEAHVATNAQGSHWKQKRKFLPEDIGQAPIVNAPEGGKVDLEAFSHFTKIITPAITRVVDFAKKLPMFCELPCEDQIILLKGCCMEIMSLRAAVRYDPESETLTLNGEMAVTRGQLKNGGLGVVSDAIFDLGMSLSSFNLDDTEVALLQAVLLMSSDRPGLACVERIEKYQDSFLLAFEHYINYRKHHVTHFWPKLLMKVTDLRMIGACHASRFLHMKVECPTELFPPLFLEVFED

[8] = target: T8, vitamin D receptor (VDR) LBD fused to GAL4 DBD (Homo sapiens, UniProt P11473); test: GeneBLAzer nuclear hormone receptor specificity assay, agonist mode, VDR; format: cell-based; conditions: 0.25 to 25 μM
T8 sequence (P11473 127-423 limits assumed): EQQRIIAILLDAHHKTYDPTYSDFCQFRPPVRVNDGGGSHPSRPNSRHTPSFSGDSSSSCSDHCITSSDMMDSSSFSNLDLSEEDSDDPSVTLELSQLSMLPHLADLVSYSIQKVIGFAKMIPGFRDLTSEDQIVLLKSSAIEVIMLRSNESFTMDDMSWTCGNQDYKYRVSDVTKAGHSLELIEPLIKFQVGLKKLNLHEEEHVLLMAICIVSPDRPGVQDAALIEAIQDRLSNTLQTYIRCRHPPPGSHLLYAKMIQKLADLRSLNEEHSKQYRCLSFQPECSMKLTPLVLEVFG

ERα LBD = target: T9, ERα LBD (Homo sapiens, UniProt P03372); test: LanthaScreen TR-FRET coactivator; format: biochemical
T9 sequence (P03372 311-547 limits assumed): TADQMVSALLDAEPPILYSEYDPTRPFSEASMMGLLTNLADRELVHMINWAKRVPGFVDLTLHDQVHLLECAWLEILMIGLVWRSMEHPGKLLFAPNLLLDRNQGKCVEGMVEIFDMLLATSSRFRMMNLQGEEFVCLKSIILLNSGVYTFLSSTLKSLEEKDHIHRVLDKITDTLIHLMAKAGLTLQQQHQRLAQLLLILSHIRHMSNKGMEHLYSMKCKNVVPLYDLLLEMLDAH

CYP1A2 = target: T10, CYP1A2 (Homo sapiens, UniProt P05177); test: P450-Glo cytochrome P450 inhibition, CYP1A2; format: in vitro ADME; conditions: highest concentration 62.5 μM
T10 sequence (P05177 1-516): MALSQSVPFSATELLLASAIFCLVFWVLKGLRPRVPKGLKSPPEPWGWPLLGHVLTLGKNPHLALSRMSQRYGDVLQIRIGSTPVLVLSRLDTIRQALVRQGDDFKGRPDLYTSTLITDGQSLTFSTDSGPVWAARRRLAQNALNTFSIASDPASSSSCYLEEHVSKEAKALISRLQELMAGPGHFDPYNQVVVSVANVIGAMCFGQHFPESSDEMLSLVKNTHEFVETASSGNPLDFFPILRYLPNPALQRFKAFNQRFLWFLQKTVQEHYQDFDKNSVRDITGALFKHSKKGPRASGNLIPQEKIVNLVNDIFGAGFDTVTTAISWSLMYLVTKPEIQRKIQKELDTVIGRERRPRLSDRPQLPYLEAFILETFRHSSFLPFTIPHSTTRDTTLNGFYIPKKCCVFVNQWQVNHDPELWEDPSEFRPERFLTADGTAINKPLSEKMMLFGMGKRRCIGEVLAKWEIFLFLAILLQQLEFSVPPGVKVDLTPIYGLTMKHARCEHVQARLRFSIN

CYP2D6 = CYP2D6 (Homo sapiens, UniProt P10635); test: P450-Glo cytochrome P450 inhibition, CYP2D6; format: in vitro ADME; conditions: highest concentration 62.5 μM
ovariectomized mice [9] = test: Object placement task; conditions: for time with moved object vs chance, object placement: tested 24 h after training; for preference for moved object vs chance, object placement: within 1 month of ovariectomy
ovariectomized mice [10] = test: Object recognition task; conditions: for preference for novel object vs chance, object recognition: IP injection

Chain of CYP2D6 (P10635 whole entry): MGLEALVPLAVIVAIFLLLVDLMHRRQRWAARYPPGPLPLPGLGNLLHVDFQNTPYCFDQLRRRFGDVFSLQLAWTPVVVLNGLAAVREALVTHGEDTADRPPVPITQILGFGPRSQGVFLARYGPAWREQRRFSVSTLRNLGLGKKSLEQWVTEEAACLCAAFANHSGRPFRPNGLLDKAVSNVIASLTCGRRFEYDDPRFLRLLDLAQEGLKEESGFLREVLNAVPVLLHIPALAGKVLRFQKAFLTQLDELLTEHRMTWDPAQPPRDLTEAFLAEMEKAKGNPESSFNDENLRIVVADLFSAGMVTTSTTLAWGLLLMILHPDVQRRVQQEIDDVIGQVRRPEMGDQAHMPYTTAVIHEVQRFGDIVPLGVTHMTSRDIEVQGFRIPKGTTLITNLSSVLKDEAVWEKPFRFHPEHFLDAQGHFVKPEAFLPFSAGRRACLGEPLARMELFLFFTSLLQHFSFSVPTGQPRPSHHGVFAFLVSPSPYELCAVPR

ERα antagonist activity [1]: No measurable antagonist activity
agonist activity at AR [2]: not an agonist
agonist activity at GR [3]: not an agonist
agonist activity at MR [4]: not an agonist
agonist activity at PPARδ [5]: not an agonist
agonist activity at PR [6]: not an agonist
agonist activity at TRβ [7]: not an agonist
agonist activity at VDR [8]: not an agonist
EC50 (ERα LBD): 2.94 µM
inhibition of CYP1A2 (CYP1A2): no inhibition
inhibition of CYP2D6 (CYP2D6): no inhibition
SMILES: OC[C@H]1CC[C@H](c2ccc(O)cc2)CC1 [ISP358–2]
time with moved object vs chance, object placement (ovariectomized mice [9]; IP injection, 0.5 mg/kg): spent significantly more time than chance with the moved object
time with moved object vs chance, object placement (ovariectomized mice [9]; IP injection, 5 mg/kg): spent significantly more time than chance with the moved object
time with moved object vs chance, object placement (ovariectomized mice [9]; dorsal hippocampal infusion, 10 pg/hemisphere): did not spend significantly more time than chance with the moved object
time with moved object vs chance, object placement (ovariectomized mice [9]; dorsal hippocampal infusion, 100 pg/hemisphere): spent significantly more time than chance with the moved object
time with moved object vs chance, object placement (ovariectomized mice [9]; dorsal hippocampal infusion, 1 ng/hemisphere): spent significantly more time than chance with the moved object
preference for moved object vs chance, object placement (ovariectomized mice [9]; oral gavage, 0.5 mg/kg): exhibited a significant preference for the moved object relative to chance
preference for moved object vs chance, object placement (ovariectomized mice [9]; oral gavage, 5 mg/kg): exhibited a significant preference for the moved object relative to chance
spatial memory consolidation after long-term estrogen deprivation, object placement (ovariectomized mice [9]; oral gavage, same doses, 4 months after ovariectomy, preliminary): did not enhance spatial memory consolidation
preference for novel object vs chance, object recognition (ovariectomized mice [10]; 0.5 mg/kg, tested 48 h after training): exhibited a significant preference for the novel object relative to chance
preference for novel object vs chance, object recognition (ovariectomized mice [10]; 5 mg/kg, tested 48 h after training): somewhat of a trend for the 5 mg/kg ISP358–2 to prefer the novel object
time with novel object vs chance, object recognition (ovariectomized mice [10]; dorsal hippocampal infusion, 10 pg/hemisphere, tested 48 h after training): Neither the vehicle nor 10 pg of ISP358–2 groups showed a preference for the novel object
time with novel object vs chance, object recognition (ovariectomized mice [10]; dorsal hippocampal infusion, 100 pg/hemisphere, tested 48 h after training): spent significantly more time than chance with the novel object
time with novel object vs chance, object recognition (ovariectomized mice [10]; dorsal hippocampal infusion, 1 ng/hemisphere, tested 48 h after training): spent significantly more time than chance with the novel object
time with novel object vs chance, object recognition (ovariectomized mice [10]; oral gavage, 0.5 mg/kg): spent significantly more time with the novel object relative to chance
time with novel object vs chance, object recognition (ovariectomized mice [10]; oral gavage, 5 mg/kg): spent significantly more time with the novel object relative to chance
